Experimental data: patent publication US20040038855A1 (priority 1999, published 2004)

Legend:
[1] = test system: micturition reflex, conscious male Sprague Dawley rats; assay: Continuous Slow Transvesicular Infusion (CSTI) rat model; type: in vivo; design: key to Effect of MCH1 antagonist in the CSTI model: B = Produced an increase in bladder capacity in rats relative to baseline capacity; conditions: bladder capacity, intragastric
Protocol: The effects of compounds on the micturition reflex were assessed in the “distension-induced rhythmic contraction” (DIRC), as described in previous publications (e.g. Maggi et al, 1987; Morikawa et al, 1992), and Continuous Slow Transvesicular Infusion (CSTI) models in rats. Male Sprague Dawley rats weighing approximately 300 g were used for the study. Rats were anaesthetized with pentobarbitone sodium (50 mg/kg, i.p). Through a median abdominal incision, bladder was exposed and a polyethylene cannula (PE 50) was introduced into the bladder through a small cut on the dome of the bladder and the cannula was secured with a purse string suture. The other end of the cannula was exteriorized subcutaneously at the dorsal neck area. Similarly, another cannula (PE 50) was introduced into the stomach through a paramedian abdominal incision with the free end exteriorized subcutaneously to the neck region. The surgical wounds were closed with silk 4-0 suture and the animal was allowed to recover with appropriate post surgical care. On the following day, the animal was placed in a rat restrainer. The open end of the bladder cannula was connected to a pressure transducer as well as infusion pump through a three-way stopcock. The bladder voiding cycles were initiated by continuous infusion of normal saline at the rate of 100 ul/min. The repetitive voiding contractions were recorded on a Power Lab on-line data acquisition software. After recording the basal voiding pattern for an hour, the test drug or vehicle was administered directly into stomach through the intragastric catheter and the voiding cycles were monitored for 5 hours. Micturition pressure and frequency were calculated before and after the treatment (at every 30 min interval) for each animal. Bladder capacity was calculated from the micturition frequency, based on the constant infusion of 100 ul/min. The effect of the test drug was expressed as a percentage of basal, pre-drug bladder capacity. WAY 100635 was used as positive control for comparison.

[2] = test system: micturition reflex, anesthetized female Sprague Dawley rats; assay: Distension-induced rhythmic contraction (DIRC) model; type: in vivo, rat; design: key: A = Produced a significant increase in contraction interval relative to pre-drug interval; conditions: contraction interval, i.v. or i.p.
Protocol: The effects of compounds on the micturition reflex were assessed in the “distension-induced rhythmic contraction” (DIRC), as described in previous publications (e.g. Maggi et al, 1987; Morikawa et al, 1992), and Continuous Slow Transvesicular Infusion (CSTI) models in rats.
Female Sprague Dawley rats weighing approximately 300 g were anesthetized with subcutaneous urethane (1.2 g/kg). The trachea was cannulated with PE240 tubing to provide a clear airway throughout the experiment. A midline abdominal incision was made and the left and right ureters were isolated. The ureters were ligated distally (to prevent escape of fluids from the bladder) and cannulated proximally with PE10 tubing. The incision was closed using 4-0 silk sutures, leaving the PE10 lines routed to the exterior for the elimination of urine. The bladder was canulated via the transurethral route using PE50 tubing inserted 2.5 cm beyond the urethral opening. This cannula was secured to the tail using tape and connected to a pressure transducer. To prevent leakage from the bladder, the cannula was tied tightly to the exterior urethral opening using 4-0 silk.
To initiate the micturition reflex, the bladder was first emptied by applying pressure to the lower abdomen, and then filled with normal saline in […] (maximum 2 ml) until spontaneous bladder contractions occurred (typically 20-40 mmHg at a rate of one contraction every 2 to 3 minutes. Once a regular rhythm was established, vehicle (saline) or Test Compounds were administered i.v. or i.p. to explore their effects on bladder activity. The 5-HT1A antagonist WAY-100635 was given as a positive control. Data were expressed as contraction interval (in seconds) before drug application (basal), or after the application of vehicle or test article.

rat MCH1 receptor = target: T1, rat MCH1 receptor (Rattus norvegicus, UniProt P97639); assay: Binding affinity (Ki) at the rat MCH1 receptor; conditions: Examples 142-153; read-out: Ki (nM) rMCH1
T1 construct: expressed in transfected cells

human MCH1 receptor = human MCH1 receptor (Homo sapiens, UniProt Q99705); assay: Saturation and competition binding of [3H]Compound 10, membranes of Cos-7 cells transfected with MCH1; design: expressed in transfected cells; host or cells: COS-7
Protocol: Saturation equilibrium binding of [3H]Compound 10 to the human MCH1 receptor. Membrane preparations from Cos-7 cells transfected with MCH1 were incubated with varying concentrations of [3H]Compound 10 (SA: 56 Ci/mmol) at room temperature for 90 min, in a volume of 0.250 ml. The reaction was terminated by filtration in GF/C filters, and the radioactivity determined by scintillation counting. Non-specific binding was defined as the amount of radioactivity retained in the filter after incubating the reaction mixture in the presence of unlabeled Compound 10 ([…]).
Competition binding of [3H]Compound 10 to the human MCH1 receptor. […] The reaction was terminated by filtration in GF/C filters and the radioactivity bound to the membrane was determined by scintillation counting.
[3H]Compound 10 was tested for its ability to bind to membrane preparations of cells expressing the human MCH1 receptor.

[3] = target: T2, MCH1 receptor binding sites in the rat CNS (Rattus norvegicus, UniProt P97639); assay: Receptor autoradiography with [3H]Compound 10 on rat brain and spinal cord sections; design: key to Density of MCH1 receptor binding sites: absent (−); weak (+); moderate (++); heavy (+++); intense (++++); conditions: for Density of MCH1 receptor binding sites: 0.1 nM [3H] Compound 10, 1 μM prazosin, 100 μM dopamine, rat CNS
T2 construct: from tissue; host or cells: coronal brain and spinal cord sections of male Sprague-Dawley rats
Protocol: Male Sprague-Dawley rats (Charles Rivers, Rochester, N.Y.) were euthanized using CO2 and decapitated and their brains rapidly removed and frozen on crushed dry ice. Coronal sections were cut at 20 μm using a cryostat and thaw-mounted onto gelatin-coated slides then stored at −20° C. until use.
Dopamine, prazosin, and phenanthroline were obtained from Sigma (St. Louis, Mo.). Phenylmethylsulfonyl Fluoride (PMSF) was from Calbiochem (La Jolla, Calif.). See also Chemical Synthetic Methods described hereinafter.
Tissue sections were allowed to equilibrate to room temperature for one hour. Sections were incubated at 25° C. for 1.5 hours in 50 mM Tris-HCl buffer, pH 7.4, containing 10 mM MgCl2, 0.16 mM PMSF, 0.3 mM phenanthroline, 0.2% bovine serum albumin (Boehringer Mannheim, Indianapolis, Ind.), 100 μM dopamine, 1 μM prazosin, […] Following incubation the sections were washed twice for 5 minutes each in 4° C. 50 mM Tris-buffer, pH 7.4, then rapidly dipped in ice-cold distilled water to remove the salts. Tissues were dried under a stream of cold air and apposed together with ^3H-plastic standard scales, to Hyperfilm-^3H (Amersham, Piscataway, N.J.) for 6 weeks. Films were developed using a Kodak developer-D19 and Rapid fixer (Kodak, Rochester, N.Y.). […]

T2 sequence (P97639 whole entry): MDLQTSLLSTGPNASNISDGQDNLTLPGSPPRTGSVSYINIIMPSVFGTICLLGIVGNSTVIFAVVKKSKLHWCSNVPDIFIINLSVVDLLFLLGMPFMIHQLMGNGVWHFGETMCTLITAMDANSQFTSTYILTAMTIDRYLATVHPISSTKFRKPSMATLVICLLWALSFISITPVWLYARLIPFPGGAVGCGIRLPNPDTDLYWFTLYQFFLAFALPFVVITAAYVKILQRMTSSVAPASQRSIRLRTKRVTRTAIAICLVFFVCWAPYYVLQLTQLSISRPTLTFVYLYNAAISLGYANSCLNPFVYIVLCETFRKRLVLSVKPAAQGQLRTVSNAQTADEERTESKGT
T1 sequence (P97639 whole entry): as above
Sequence of human MCH1 receptor (Q99705 whole entry): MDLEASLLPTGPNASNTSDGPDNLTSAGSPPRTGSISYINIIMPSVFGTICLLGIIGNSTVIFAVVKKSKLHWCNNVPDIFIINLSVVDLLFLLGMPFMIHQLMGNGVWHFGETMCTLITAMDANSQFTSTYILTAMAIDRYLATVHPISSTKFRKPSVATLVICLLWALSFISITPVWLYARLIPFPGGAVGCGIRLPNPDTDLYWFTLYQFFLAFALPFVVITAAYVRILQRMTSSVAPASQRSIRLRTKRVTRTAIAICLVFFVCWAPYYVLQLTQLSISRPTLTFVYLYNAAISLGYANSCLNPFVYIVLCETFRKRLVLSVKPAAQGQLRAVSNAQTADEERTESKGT

Structure (SMILES): Cc1onc(-c2c(Cl)cccc2Cl)c1C(=O)NCCCCCN1CCC(c2cccc(NC(=O)C(C)C)c2)CC1 [Example 149]
- Effect of MCH1 antagonist in the CSTI model [1]: B
- Effect of MCH1 antagonist in the DIRC model [2]: A
- Ki (rat MCH1 receptor): 7.1 nM

Structure (SMILES): [3H]C1CN(CCCNC(=O)N2C(=O)NC(COC)=C(C(=O)OC)[C@@H]2c2ccc(F)c(F)c2)CCC1([3H])c1cccc(NC(C)=O)c1 (stereo partly drawn) [[3H]Compound 10, TRITIATED METHYL (4S)-3-{[(3-{4-[3-(ACETYLAMINO)PHENYL]-1-PIPERIDINYL}PROPYL)AMINO]CARBONYL}-4-(3,4-DIFLUOROPHENYL)-6-(METHOXYMETHYL)-2-OXO-1,2,3,4-TETRAHYDRO-5-PYRIMIDINECARBOXYLATE]
- maximum number of binding sites (Bmax) (human MCH1 receptor): 870 fmol/mg protein
- specific binding ([3]; 0.1 nM with 100 μM dopamine and 1 μM prazosin, nonspecific: 10 μM unlabeled Compound 10): approximately 95%
- Density of MCH1 receptor binding sites ([3]; Amygdala: Anterior cortical n.): +
- Density of MCH1 receptor binding sites ([3]; Amygdala: Basolateral amygdaloid n.): +
- Density of MCH1 receptor binding sites ([3]; Amygdala: Bed n. Of the stria terminalis): ++
- Density of MCH1 receptor binding sites ([3]; Amygdala: Central amygdaloid n.): +
- Density of MCH1 receptor binding sites ([3]; Basal Ganglia: Accumbens n., core): +++
- Density of MCH1 receptor binding sites ([3]; Basal Ganglia: Accumbens n., shell): ++++
- Density of MCH1 receptor binding sites ([3]; Basal Ganglia: Caudate-putamen): +++
- Density of MCH1 receptor binding sites ([3]; Basal Ganglia: Globus pallidus): −
- Density of MCH1 receptor binding sites ([3]; Basal Ganglia: Medial septal n.): +
- Density of MCH1 receptor binding sites ([3]; Basal Ganglia: Septohippocampal n.): +
- Density of MCH1 receptor binding sites ([3]; Cerebellum): −
- Density of MCH1 receptor binding sites ([3]; Diencephalon, Thalamus: Anterodorsal n.): +
- Density of MCH1 receptor binding sites ([3]; Diencephalon, Thalamus: Centromedial n.): +
- Density of MCH1 receptor binding sites ([3]; Diencephalon, Thalamus: Mediodorsal n.): −
- Density of MCH1 receptor binding sites ([3]; Diencephalon, Thalamus: Paraventricular n.): +
- Density of MCH1 receptor binding sites ([3]; Diencephalon, Thalamus: Reticular n.): +
- Density of MCH1 receptor binding sites ([3]; Diencephalon: Hypothalamus): +
- Density of MCH1 receptor binding sites ([3]; Hippocampal formation: CA1): ++
- Density of MCH1 receptor binding sites ([3]; Hippocampal formation: CA2): ++
- Density of MCH1 receptor binding sites ([3]; Hippocampal formation: CA3): ++
- Density of MCH1 receptor binding sites ([3]; Hippocampal formation: Pre/parasubiculum): ++
- Density of MCH1 receptor binding sites ([3]; Locus coeruleus (listed under Mesencephalon)): ++
- Density of MCH1 receptor binding sites ([3]; Mesencephalon: Caudal linear raphe n.): +
- Density of MCH1 receptor binding sites ([3]; Mesencephalon: Interpeduncular n.): ++
- Density of MCH1 receptor binding sites ([3]; Mesencephalon: Periaqueductal gray): +
- Density of MCH1 receptor binding sites ([3]; Mesencephalon: Pontine n.): +
- Density of MCH1 receptor binding sites ([3]; Mesencephalon: Substantia nigra): +
- Density of MCH1 receptor binding sites ([3]; Mesencephalon: Superior colliculus): ++
- Density of MCH1 receptor binding sites ([3]; Olfactory System: Anterior olfactory n.): +
- Density of MCH1 receptor binding sites ([3]; Olfactory System: Islands of Calleja, major): +++
- Density of MCH1 receptor binding sites ([3]; Olfactory System: Olfactory tubercle): +++
- Density of MCH1 receptor binding sites ([3]; Spinal cord: Dorsal horn): +
- Density of MCH1 receptor binding sites ([3]; Spinal cord: Ventral horn): +
- Density of MCH1 receptor binding sites ([3]; Telencephalon: Claustrum): ++
- Density of MCH1 receptor binding sites ([3]; Telencephalon: Dorsal endopiriform n.): +
